PubChem BioAssay (NCI)
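Interpolation was linear, between the two tested concentrations surrounding the appropriate level; five concentrations were tested over 48 hours in 96-well plates. At the GI50, growth is halved. TGI marks complete inhibition of growth.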

How the values were obtained:
Assay in all cases: NCI tumour cell line growth inhibition, 48 h
CAKI-1 renal = test system: CAKI-1 renal
COLO 205 colon = test system: COLO 205 colon
DU-145 prostate = test system: DU-145 prostate
HL-60(TB) leukemia = test system: HL-60(TB) leukemia
HOP-92 NSCLC = test system: HOP-92 NSCLC
KM12 colon = test system: KM12 colon
NCI-H522 lung = test system: NCI-H522 lung
RXF 393 renal = test system: RXF 393 renal
SR leukemia = test system: SR leukemia
SW-620 colon = test system: SW-620 colon

Structure (SMILES) | TGI (CAKI-1 renal) [µM] | TGI (COLO 205 colon) [µM] | TGI (DU-145 prostate) [µM] | TGI (HL-60(TB) leukemia) [µM] | TGI (HOP-92 NSCLC) [µM] | TGI (KM12 colon) [µM] | TGI (NCI-H522 lung) [µM] | TGI (RXF 393 renal) [nM] | TGI (SR leukemia) [µM] | TGI (SW-620 colon) [µM] | GI50 (CAKI-1 renal) [nM] | GI50 (COLO 205 colon) [nM] | GI50 (DU-145 prostate) [nM] | GI50 (HL-60(TB) leukemia) [nM] | GI50 (HOP-92 NSCLC) [nM] | GI50 (KM12 colon) [nM] | GI50 (NCI-H522 lung) [nM] | GI50 (RXF 393 renal) [nM] | GI50 (SR leukemia) [nM] | GI50 (SW-620 colon) [nM]
C=C1C(C)C2C(Cc3ccccc3)NC(=O)C23C(OC(C)=O)/C=C/C(C)(O)CC(C)C/C=C/C3C1O (configuration not stated) | 3.08 | > 100 | > 100 | 36 | 1.01 | > 100 | 45.1 | 2970 | > 59.9 | > 100 | – | – | – | – | – | – | – | – | – | –
COc1ccc(/C=C(\C#N)c2cc3ccccc3n2C)cc1 | > 100 | – | > 100 | – | > 100 | > 100 | 5.03 | 834 | – | > 100 | 437 | 366 | 502 | 262 | 1500 | 503 | 407 | 244 | 176 | 357
O=C(/C=C/c1ccco1)Nc1ncc(Cc2ccc(F)cc2)s1 | > 100 | 0.137 | > 100 | 0.185 | > 100 | > 100 | 0.191 | 593 | > 68 | > 100 | 52.5 | 35.2 | 90.1 | 53.3 | 8560 | 48.6 | 25.5 | 122 | 35.6 | 44.3
COc1ccc([C@H]2O[C@@H](CO)C[C@]2(O)c2ccc(OC)cc2)cc1 | > 100 | > 100 | > 100 | > 100 | > 100 | > 100 | > 100 | > 100000 | > 100 | > 100 | > 100000 | > 100000 | > 100000 | 39300 | 95600 | > 100000 | > 100000 | 28400 | 49800 | > 100000
CCSC1=CC(=O)c2ccccc2C1=O | 5.5 | 5.22 | 27.8 | 1.8 | 2.66 | 25.4 | 2.39 | 4540 | 6.8 | 3.42 | 1960 | 2330 | 14400 | 389 | 1320 | 11000 | 821 | 2090 | 2570 | 1560
c1ccc(-c2nc(N3CCNCC3)c3nc(-c4ccccc4)oc3n2)cc1 | 2.94 | 4.12 | 3.33 | 4.08 | 3.1 | 3.6 | 3.86 | 3480 | 1.2 | 3.57 | 1550 | 2060 | 1860 | 1890 | 1500 | 1910 | 1810 | 1830 | 298 | 1860
